Data: EPA's ToxRefDB 2

Experiments:
[1] = system: rat; details: Prenatal developmental toxicity study, other, Oral, Gavage/Intubation, dose end: 15 GD
[2] = system: dog; details: Subchronic oral toxicity in nonrodent, beagle, Capsule, dose end: 90 day, group: systemic, systemic / clinical chemistry / [other] / [other] + systemic / clinical chemistry / alkaline phosphatase (alp/alk) / alkaline phosphatase (…
[3] = system: rat; details: Combined chronic toxicity/carcinogenicity, sprague dawley, Oral, Feed, dose end: 24 month, group: systemic
[4] = system: rat; details: Subchronic oral toxicity in rodents, sprague dawley, Feed, dose end: 90 day, group: systemic, systemic / organ weight / kidney / absolute + systemic / organ weight / kidney / relative to body weight + systemic / organ weight / kidney…
[5] = system: rat; details: Subchronic oral toxicity in rodents, other, Feed, dose end: 90 day, group: systemic, systemic / in life observation / body weight / body weight gain + systemic / pathology microscopic / kidney / regeneration + systemic / …
[6] = system: rat; details: Multigenerational reproductive toxicity study, sprague dawley, Oral, Feed, dose end: 2 generation
[7] = system: mouse; details: Carcinogenicity, cd1, Oral, Feed, dose end: 78 week, group: systemic
[8] = system: dog; details: Subchronic oral toxicity in nonrodent, beagle, Feed, dose end: 90 day, group: systemic, systemic / clinical chemistry / alkaline phosphatase (alp/alk) / alkaline phosphatase (alp/alk) + systemic / organ weight / liver / absolute…
[9] = system: rat; details: Subchronic oral toxicity in rodents, other, Feed, dose end: 90 day, group: systemic
[10] = system: mouse; details: Carcinogenicity, cd1, Oral, Feed, dose end: 18 month, group: systemic
[11] = system: dog; details: Subchronic oral toxicity in nonrodent, beagle, Feed, dose end: 13 week, group: systemic, systemic / pathology microscopic / intestine large / vacuolization + systemic / pathology microscopic / intestine small / vacuolization + …
[12] = system: rat; details: Subchronic oral toxicity in rodents, fischer, Feed, dose end: 13 week, group: systemic, systemic / pathology microscopic / thyroid gland / vacuolization + systemic / organ weight / heart / nos
[13] = system: mouse; details: Subchronic oral toxicity in rodents, cd1, Feed, dose end: 13 week, group: systemic, systemic / pathology microscopic / adrenal gland / vacuolization cytoplasmic + systemic / pathology microscopic / bone marrow / …
[14] = system: rat; details: Multigenerational reproductive toxicity study, sprague dawley, Oral, Feed, dose end: 2 generation; remark: listed apart in the source
[15] = system: dog; details: Chronic toxicity, beagle, Oral, Feed, dose end: 52 week, group: systemic
[16] = system: rat; details: Combined chronic toxicity/carcinogenicity, fischer, Oral, Feed, dose end: 24 month, group: systemic
[17] = system: rat; details: Subchronic oral toxicity in rodents, fischer, Feed, dose end: 3 month, group: systemic
[18] = group: developmental, developmental / developmental malformation / aortic arch / retroesophageal + developmental / developmental malformation / bone / misshapen…
[19] = group: maternal, systemic / in life observation / body weight / body weight + systemic / in life observation / body weight / body weight gain
[20] = group: maternal, systemic / in life observation / body weight / body weight + systemic / in life observation / body weight / body weight gain + reproductive…
[21] = systemic / in life observation / body weight / body weight + systemic / in life observation / body weight / body weight gain + systemic / in…
[22] = group: offspring, developmental / offspring survival late / [other] / [other] + developmental / offspring survival late / viability index / viability index + …
[23] = group: offspring, systemic / pathology microscopic / kidney / dilatation
[24] = group: parental, systemic / in life observation / body weight / body weight + systemic / in life observation / food consumption / food consumption + systemic…
[25] = systemic / in life observation / mortality / mortality + systemic / organ weight / kidney / absolute + systemic / organ weight / kidney / …
[26] = systemic / pathology microscopic / liver / inclusion body intracytoplasmic
[27] = group: offspring, systemic / in life observation / body weight / offspring (pup) weight
[28] = group: parental, systemic / organ weight / heart / absolute + systemic / organ weight / heart / relative to body weight + systemic / organ weight / kidney / …
[29] = group: reproductive, reproductive / offspring survival early / litter size / litter size + reproductive / offspring survival early / birth index / live birth …
[30] = systemic / pathology microscopic / lymph node / vacuolization + systemic / pathology microscopic / spleen / vacuolization + systemic / organ…
[31] = systemic / pathology microscopic / thyroid gland / vacuolization
[32] = systemic / pathology microscopic / thyroid gland / vacuolization + systemic / clinical chemistry / alkaline phosphatase (alp/alk) / alkaline…
[33] = systemic / pathology microscopic / heart / cardiomyopathy + systemic / pathology microscopic / lymph node / histiocytosis + systemic / …
[34] = systemic / pathology microscopic / lymph node / histiocytosis + systemic / pathology microscopic / spleen / histiocytosis + systemic / …

O=C(O)CCCOc1ccc(Cl)cc1Cl [2,4-DB]
LEL [1, 18]: 125 mg/kg/day | LOAEL [1, 18]: 125 mg/kg/day | NEL [1, 18]: 62.5 mg/kg/day | NOAEL [1, 18]: 62.5 mg/kg/day | LEL [1, 19]: 62.5 mg/kg/day | LOAEL [1, 19]: 62.5 mg/kg/day | NEL [1, 20]: 31.2 mg/kg/day | NOAEL [1, 20]: 31.2 mg/kg/day | LEL [2]: 25 mg/kg/day | LOAEL [2]: 25 mg/kg/day | NEL [2]: 8 mg/kg/day | NOAEL [2]: 8 mg/kg/day | LOAEL [3, 21]: 30 mg/kg/day | NOAEL [3, 21]: 3 mg/kg/day | NEL ([3]; systemic / organ weight / liver / absolute + systemic / organ weight / heart / absolute + systemic / organ weight / spleen / absolute + …): 90 mg/kg/day | LEL [4]: 41.9 mg/kg/day | LOAEL [4]: 41.9 mg/kg/day | NEL [4]: 4.16 mg/kg/day | NOAEL [4]: 4.16 mg/kg/day | LEL [5]: 50 mg/kg/day | LOAEL [5]: 50 mg/kg/day | NEL [5]: 15.8 mg/kg/day | NOAEL [5]: 15.8 mg/kg/day | LOAEL [6, 22]: 112 mg/kg/day | NOAEL [6, 22]: 25 mg/kg/day | LEL [6, 23]: 25 mg/kg/day | NEL [6, 23]: 5 mg/kg/day | LEL [6, 24]: 112 mg/kg/day | LOAEL [6, 24]: 112 mg/kg/day | NEL [6, 24]: 25 mg/kg/day | NOAEL [6, 24]: 25 mg/kg/day | LOAEL [7, 25]: 112 mg/kg/day | NOAEL [7, 25]: 37.5 mg/kg/day | LEL ([7]; systemic / in life observation / mortality / mortality + systemic / pathology microscopic / kidney / amyloid deposition + systemic / …): 112 mg/kg/day | NEL ([7]; systemic / organ weight / kidney / absolute + systemic / organ weight / kidney / relative to body weight + systemic / organ weight / liver…): 37.5 mg/kg/day

COCC(=O)N(c1c(C)cccc1C)[C@H](C)C(=O)OC [Metalaxyl-M]
LEL [8]: 38.6 mg/kg/day | LOAEL [8]: 38.6 mg/kg/day | NEL [8]: 7.25 mg/kg/day | NOAEL [8]: 7.25 mg/kg/day | LEL [9, 26]: 44.8 mg/kg/day | NEL [9, 26]: 16.8 mg/kg/day | LOAEL ([9]; systemic / pathology microscopic / liver / infiltration cellular + systemic / pathology microscopic / liver / inclusion body …): 90.5 mg/kg/day

CC[C@H]1CCC[C@H](O[C@H]2CC[C@H](N(C)C)[C@@H](C)O2)[C@@H](C)C(=O)C2=C[C@@H]3[C@@H](C=C(C)[C@@H]4C[C@@H](O[C@@H]5O[C@@H](C)[C@H](OC)[C@@H](OC)[C@H]5OC)C[C@@H]34)[C@@H]2CC(=O)O1.CC[C@H]1CCC[C@H](O[C@H]2CC[C@H](N(C)C)[C@@H](C)O2)[C@@H](C)C(=O)C2=C[C@@H]3[C@@H](C=C[C@@H]4C[C@@H](O[C@@H]5O[C@@H](C)[C@H](OC)[C@@H](OC)[C@H]5OC)C[C@@H]34)[C@@H]2CC(=O)O1 [Spinosad]
LOAEL ([10]; systemic / hematology / leukocyte (wbc) count differential / leukocyte (wbc)): 41.5 mg/kg/day | NOAEL ([10]; systemic / hematology / leukocyte (wbc) count differential / leukocyte (wbc) + systemic / organ weight / liver / relative to body weight + …): 1.3 mg/kg/day | NEL ([10]; systemic / organ weight / brain / relative to body weight): 1.1 mg/kg/day | LEL ([10]; systemic / organ weight / brain / relative to body weight + systemic / in life observation / body weight / body weight + systemic / in life …): 32.7 mg/kg/day | LEL [11]: 9.73 mg/kg/day | LOAEL [11]: 9.73 mg/kg/day | NEL [11]: 4.89 mg/kg/day | NOAEL [11]: 4.89 mg/kg/day | LEL [12]: 42.7 mg/kg/day | LOAEL [12]: > 42.7 mg/kg/day | NOAEL [12]: ≥ 42.7 mg/kg/day | LEL [13]: 22.5 mg/kg/day | LOAEL [13]: 22.5 mg/kg/day | NEL [13]: 7.5 mg/kg/day | NOAEL [13]: 7.5 mg/kg/day | LEL [14, 27]: 10 mg/kg/day | NEL [14, 27]: 3 mg/kg/day | NOAEL ([14]; group: offspring, systemic / in life observation / clinical signs / hemorrhagic perineal discharge): 10 mg/kg/day | LOAEL ([14]; group: offspring, systemic / in life observation / clinical signs / hemorrhagic perineal discharge + systemic / in life observation / body weight / offspring…): 100 mg/kg/day | LEL [14, 28]: 100 mg/kg/day | LOAEL [14, 28]: 100 mg/kg/day | NEL [14, 28]: 10 mg/kg/day | NOAEL [14, 28]: 10 mg/kg/day | NEL [14, 29]: 10 mg/kg/day | NOAEL [14, 29]: 10 mg/kg/day | LOAEL ([14]; group: reproductive, reproductive / offspring survival early / litter size / litter size + reproductive / reproductive performance / dystocia / dystocia): 100 mg/kg/day | LEL ([14]; group: reproductive, reproductive / offspring survival early / litter size / litter size + reproductive / reproductive performance / dystocia / dystocia + …): 100 mg/kg/day | LOAEL ([15]; systemic / pathology microscopic / lymph node / vacuolization + systemic / pathology microscopic / spleen / vacuolization): 8.22 mg/kg/day | LEL [15, 30]: 8.22 mg/kg/day | NEL [15, 30]: 2.72 mg/kg/day | NOAEL [15, 30]: 2.72 mg/kg/day | LEL [16, 31]: 9.5 mg/kg/day | LOAEL [16, 31]: 24.1 mg/kg/day | NEL [16, 32]: 2.4 mg/kg/day | NOAEL [16, 32]: 9.5 mg/kg/day | LOAEL [17, 33]: 68.5 mg/kg/day | NOAEL [17, 33]: 33.9 mg/kg/day | LEL [17, 34]: 33.9 mg/kg/day | NEL [17, 34]: < 33.9 mg/kg/day
